Source: patent US8192962B2, “Processes for detecting toxic substances” (Daikin Industries, Ltd., priority 2001, dated 2012)

Tested on: Unknown protein yeast genes
Test: DNA chip mRNA expression in yeast, unknown protein yeast genes (Table 1)
Format: cell-based, Saccharomyces cerevisiae S288C
Method: Yeast (Saccharomyces cerevisiae S288C (α SUC2mal mel gap2 CUP1)) were incubated at 25° C. on YPD medium (yeast extract 1%, polypepton 2%, glucose 2%). One of toxic chemical substances was added to the cells at logarithmic growth phase, and the cells were further incubated for two hours. Cells were cultured without any chemical substance in the same condition, and were used as control. Concentrations of the chemical substances were defined to inhibit the growth of the yeast but not lead to death.
After completion of the incubation, the culture was centrifuged to collect the cells. To the cells, sodium acetate buffer (50 mM sodium acetate, 10 mM EDTA, 1% SDS) was added, and the mixture was shaken at 65° C. for five minutes, followed by returning to room temperature, and obtaining the supernatant, of which the procedures were repeated two times. To the supernatant, ½ amount of a solution of phenol/chloroform was added, and the mixture was centrifuged to give a supernatant, which was added with an equal amount of chloroform, and the mixture was centrifuged to give a supernatant. To the supernatant, an equal amount of isopropanol containing 0.3 M sodium acetate was added, and the mixture was allowed to stand at room temperature for 30 minutes, after which the mixture was centrifuged to give a sediment of the whole RNAs. Seventy % ethanol was added to the sediment, and the mixture was again centrifuged to give a sediment, which was then dried and dissolved in water. mRNA was isolated from the whole RNAs as followings. In view of the fact that a poly A chain is attached to the 3′ terminus of mRNA, a polynucleotide having a poly T structure which was immobilized on the surface of latex beads was used to trap the mRNA, and then the mRNA was washed and eluted with spine column (Oligotex-dT30<Super>mRNA Purification Kit, Takara). Reverse transcription of the mRNA was conducted with a reverse transcriptase (Super Script II Reverse Transcriptase; catalogue No. 18064-014, GibcoBRL) using fluorescence-labeled nucleotides to give cDNAs that were introduced with Cy3-dUTP or Cy5-dUTP during the reverse transcription.
The labeled cDNAs were dissolved in TE buffer (10mM Tris-HCl/1 mM EDTA, pH8.0), and the solution was dropped on the DNA chip containing the whole genes of yeast (DNA Chip Research Inc. Japan) so that the cDNAs were hybridized on the DNA chip at 65° C. for over 12 hours. The fluoresces intensity of the DNA chip was read with a scanner, and the ratio relative to the fluorescence intensity resulting from the absence of chemical substance was estimated as the following, which is shown in Tables 1 to 9: […]

Structure (SMILES): CCCCCCCCCCCCOS(=O)(=O)[O-].[Na+] [(18), sodium lauryl sulfate]
- The level of expressed mRNA in the presence of chemical substance/The level of expressed mRNA in the absence of chemical substance (yeast gene YKL151C, incubated two hours with chemical substance): 1.8
- The level of expressed mRNA in the presence of chemical substance/The level of expressed mRNA in the absence of chemical substance (yeast gene YKL153W, incubated two hours with chemical substance): 1.3
- The level of expressed mRNA in the presence of chemical substance/The level of expressed mRNA in the absence of chemical substance (yeast gene YKL195W, incubated two hours with chemical substance): 1.6
- The level of expressed mRNA in the presence of chemical substance/The level of expressed mRNA in the absence of chemical substance (yeast gene YKR091W, incubated two hours with chemical substance): 1.3
- The level of expressed mRNA in the presence of chemical substance/The level of expressed mRNA in the absence of chemical substance (yeast gene YLR054C, incubated two hours with chemical substance): 1.1
- The level of expressed mRNA in the presence of chemical substance/The level of expressed mRNA in the absence of chemical substance (yeast gene YLR149C, incubated two hours with chemical substance): 3.0
- The level of expressed mRNA in the presence of chemical substance/The level of expressed mRNA in the absence of chemical substance (yeast gene YLR152C, incubated two hours with chemical substance): 1.8
- The level of expressed mRNA in the presence of chemical substance/The level of expressed mRNA in the absence of chemical substance (yeast gene YLR194C, incubated two hours with chemical substance): 0.9
- The level of expressed mRNA in the presence of chemical substance/The level of expressed mRNA in the absence of chemical substance (yeast gene YLR324W, incubated two hours with chemical substance): 1.2
- The level of expressed mRNA in the presence of chemical substance/The level of expressed mRNA in the absence of chemical substance (yeast gene YLR350W, incubated two hours with chemical substance): 1.1
- The level of expressed mRNA in the presence of chemical substance/The level of expressed mRNA in the absence of chemical substance (yeast gene YLR387C, incubated two hours with chemical substance): 1.4
- The level of expressed mRNA in the presence of chemical substance/The level of expressed mRNA in the absence of chemical substance (yeast gene YLR460C): 1.1
- The level of expressed mRNA in the presence of chemical substance/The level of expressed mRNA in the absence of chemical substance (yeast gene YML117W, incubated two hours with chemical substance): 1.3
- The level of expressed mRNA in the presence of chemical substance/The level of expressed mRNA in the absence of chemical substance (yeast gene YMR009W, incubated two hours with chemical substance): 2.5
- The level of expressed mRNA in the presence of chemical substance/The level of expressed mRNA in the absence of chemical substance (yeast gene YMR067C, incubated two hours with chemical substance): 1.0
- The level of expressed mRNA in the presence of chemical substance/The level of expressed mRNA in the absence of chemical substance (yeast gene YMR090W): 2.8
- The level of expressed mRNA in the presence of chemical substance/The level of expressed mRNA in the absence of chemical substance (yeast gene YMR095C, incubated two hours with chemical substance): 1.0
- The level of expressed mRNA in the presence of chemical substance/The level of expressed mRNA in the absence of chemical substance (yeast gene YMR097C, incubated two hours with chemical substance): 1.8
- The level of expressed mRNA in the presence of chemical substance/The level of expressed mRNA in the absence of chemical substance (yeast gene YMR102C, incubated two hours with chemical substance): 2.8
- The level of expressed mRNA in the presence of chemical substance/The level of expressed mRNA in the absence of chemical substance (yeast gene YMR107W, incubated two hours with chemical substance): 8.1
- The level of expressed mRNA in the presence of chemical substance/The level of expressed mRNA in the absence of chemical substance (yeast gene YMR180C, incubated two hours with chemical substance): 1.7
- The level of expressed mRNA in the presence of chemical substance/The level of expressed mRNA in the absence of chemical substance (yeast gene YMR184W, incubated two hours with chemical substance): 2.0
- The level of expressed mRNA in the presence of chemical substance/The level of expressed mRNA in the absence of chemical substance (yeast gene YMR191W, incubated two hours with chemical substance): 2.1
- The level of expressed mRNA in the presence of chemical substance/The level of expressed mRNA in the absence of chemical substance (yeast gene YMR295C, incubated two hours with chemical substance): 3.4
- The level of expressed mRNA in the presence of chemical substance/The level of expressed mRNA in the absence of chemical substance (yeast gene YMR315W): 2.8
- The level of expressed mRNA in the presence of chemical substance/The level of expressed mRNA in the absence of chemical substance (yeast gene YMR316W, incubated two hours with chemical substance): 6.4
- The level of expressed mRNA in the presence of chemical substance/The level of expressed mRNA in the absence of chemical substance (yeast gene YNL044W, incubated two hours with chemical substance): 3.4
- The level of expressed mRNA in the presence of chemical substance/The level of expressed mRNA in the absence of chemical substance (yeast gene YNL074C, incubated two hours with chemical substance): 1.3
- The level of expressed mRNA in the presence of chemical substance/The level of expressed mRNA in the absence of chemical substance (yeast gene YNL092W, incubated two hours with chemical substance): 1.6
- The level of expressed mRNA in the presence of chemical substance/The level of expressed mRNA in the absence of chemical substance (yeast gene YNL115C, incubated two hours with chemical substance): 2.6
- The level of expressed mRNA in the presence of chemical substance/The level of expressed mRNA in the absence of chemical substance (yeast gene YNL144C): 2.8
- The level of expressed mRNA in the presence of chemical substance/The level of expressed mRNA in the absence of chemical substance (yeast gene YNL156C, incubated two hours with chemical substance): 1.9
- The level of expressed mRNA in the presence of chemical substance/The level of expressed mRNA in the absence of chemical substance (yeast gene YNL234W, incubated two hours with chemical substance): 1.0
- The level of expressed mRNA in the presence of chemical substance/The level of expressed mRNA in the absence of chemical substance (yeast gene YNL281W, incubated two hours with chemical substance): 0.9
- The level of expressed mRNA in the presence of chemical substance/The level of expressed mRNA in the absence of chemical substance (yeast gene YNL305C, incubated two hours with chemical substance): 1.6
- The level of expressed mRNA in the presence of chemical substance/The level of expressed mRNA in the absence of chemical substance (yeast gene YNR068C, incubated two hours with chemical substance): 1.0
- The level of expressed mRNA in the presence of chemical substance/The level of expressed mRNA in the absence of chemical substance (yeast gene YOL032W, incubated two hours with chemical substance): 1.8
- The level of expressed mRNA in the presence of chemical substance/The level of expressed mRNA in the absence of chemical substance (yeast gene YOL036W, incubated two hours with chemical substance): 0.9
- The level of expressed mRNA in the presence of chemical substance/The level of expressed mRNA in the absence of chemical substance (yeast gene YOL047C, incubated two hours with chemical substance): 1.0
- The level of expressed mRNA in the presence of chemical substance/The level of expressed mRNA in the absence of chemical substance (yeast gene YOL071W, incubated two hours with chemical substance): 2.0
- The level of expressed mRNA in the presence of chemical substance/The level of expressed mRNA in the absence of chemical substance (yeast gene YOL082W, incubated two hours with chemical substance): 2.5
- The level of expressed mRNA in the presence of chemical substance/The level of expressed mRNA in the absence of chemical substance (yeast gene YOL083W, incubated two hours with chemical substance): 3.2
- The level of expressed mRNA in the presence of chemical substance/The level of expressed mRNA in the absence of chemical substance (yeast gene YOL117W, incubated two hours with chemical substance): 1.4
- The level of expressed mRNA in the presence of chemical substance/The level of expressed mRNA in the absence of chemical substance (yeast gene YOL131W, incubated two hours with chemical substance): 0.9
- The level of expressed mRNA in the presence of chemical substance/The level of expressed mRNA in the absence of chemical substance (yeast gene YOL150C): 2.2
- The level of expressed mRNA in the presence of chemical substance/The level of expressed mRNA in the absence of chemical substance (yeast gene YOL162W, incubated two hours with chemical substance): 0.9
- The level of expressed mRNA in the presence of chemical substance/The level of expressed mRNA in the absence of chemical substance (yeast gene YOR019W, incubated two hours with chemical substance): 2.8
- The level of expressed mRNA in the presence of chemical substance/The level of expressed mRNA in the absence of chemical substance (yeast gene YOR197W, incubated two hours with chemical substance): 1.5
- The level of expressed mRNA in the presence of chemical substance/The level of expressed mRNA in the absence of chemical substance (yeast gene YPL087W, incubated two hours with chemical substance): 2.7
- The level of expressed mRNA in the presence of chemical substance/The level of expressed mRNA in the absence of chemical substance (yeast gene YPL196W, incubated two hours with chemical substance): 2.3
- The level of expressed mRNA in the presence of chemical substance/The level of expressed mRNA in the absence of chemical substance (yeast gene YPL206C, incubated two hours with chemical substance): 1.9
- The level of expressed mRNA in the presence of chemical substance/The level of expressed mRNA in the absence of chemical substance (yeast gene YPL222W, incubated two hours with chemical substance): 0.9
- The level of expressed mRNA in the presence of chemical substance/The level of expressed mRNA in the absence of chemical substance (yeast gene YPR023C, incubated two hours with chemical substance): 1.1
- The level of expressed mRNA in the presence of chemical substance/The level of expressed mRNA in the absence of chemical substance (yeast gene YPR151C, incubated two hours with chemical substance): 1.4
